Converted amounts (≈) assume the structure as drawn.
target: T1, HIV-1 protease (Human immunodeficiency virus type 1 group M subtype B, UniProt P04585); experiment: biochemical; format: biochemical; conditions: not given
T1 construct: Purified HIV-1 protease was obtained as described above; made in house; host or cells: E. coli K12 L507/pHP10D (NRRL B-18560)
Description: E. Fluorescence HIV-1 Protease Inhibitor Assay
The following buffers and solutions are used in the Fluorescence HIV-1 Protease Inhibitor Assay:
To each well of a round bottom, 96-well plate is added 20 μL of the Enzyme Solution followed by 10 μL of the compound to be evaluated in a 20% aqueous dimethylsulfoxide solution. Purified HIV-1 protease was obtained as described above. The resulting solution is incubated for one hour at room temperature and then 20 μL of a solution containing the substrate, prepared above, in MES-ALB buffer (1.5 μl/mL) is added to each well. The solutions are then incubated for 16 hours at room temperature and then each well is diluted with 150 μL of MES-ALB buffer.
To each well of a second round bottom, 96-well Pandex plate is added 25 μL of the Avidin Coated Beads Solution. Then, to each well is added 25 μL of the diluted incubation solutions, prepared above. The solutions are mixed thoroughly and the plates are loaded into a Pandex® machine, washed, evacuated and read. Sample detection was performed by excitation at 485 nm, reading the resulting epifluorescence at 535 nm.

Row | Compound | IC50 [nM]
1 | CC(C)(C)NC(=O)[C@@H]1C[C@@H]2CCCC[C@@H]2CN1C[C@@H](O)[C@H](Cc1ccccc1)NC(=O)[C@@H](CSc1ccc(F)cc1)NS(C)(=O)=O [Example 37, [2R-(2R*,3R*,6R*,3'S*,4a'S*,8a'S*)]-N(t-Butyl)-2'-[2-hydroxy-3-phenylmethyl-4-aza-5-oxo-6-N(methylsulfonyl)amino-7-p-fluoro-phenylthio]heptyl decahydroisoquinoline-3'-carboxamide] | 5.32
2 | CC(C)(C)NC(=O)[C@@H]1C[C@@H]2CCCC[C@@H]2CN1C[C@@H](O)[C@H](Cc1ccccc1)NC(=O)[C@@H](C[S+]([O-])c1ccc(F)cc1)NS(C)(=O)=O (stereo partly drawn) [Example 38, [2R-(2R*,3R*,6R*,3'S*,4a'S*,8a'S*)]-N(t-Butyl)-2'-[2-hydroxy-3-phenylmethyl-4-aza-5-oxo-6-N(methylsulfonyl)amino-7-p-fluoro-phenylsulfinyl]heptyl decahydroisoquinoline-3'-carboxamide] | 0.722
3 | CC(C)(C)NC(=O)[C@@H]1C[C@@H]2CCCC[C@@H]2CN1C[C@@H](O)[C@H](Cc1ccccc1)NC(=O)[C@@H](CS(=O)(=O)c1ccc(F)cc1)NS(C)(=O)=O [Example 39, [2R-(2R*,3R*,6R*,3'S*,4a'S*,8a'S*)]-N(t-Butyl)-2'-[2-hydroxy-3-phenylmethyl-4-aza-5-oxo-6-N(methylsulfonyl)amino-7-p-fluoro-phenylsulfonyl]heptyl decahydroisoquinoline-3'-carboxamide] | 0.846
4 | CC(C)(C)NC(=O)[C@@H]1C[C@@H]2CCCC[C@@H]2CN1C[C@@H](O)[C@H](Cc1ccccc1)NC(=O)[C@@H](C[S+]([O-])c1ccc2ccccc2c1)NS(C)(=O)=O (stereo partly drawn) [Example 42, [2R-(2R*,3R*,6R*,3'S*,4a'S*,8a'S*)]-N(t-Butyl)-2'-[2-hydroxy-3-phenylmethyl-4-aza-5-oxo-6-N(methylsulfonyl)amino-7-naphth-2-ylsulfinyl]heptyl decahydroisoquinoline-3'-carboxamide] | 0.621
5 | CC(C)(C)NC(=O)[C@@H]1C[C@@H]2CCCC[C@@H]2CN1C[C@@H](O)[C@H](Cc1ccccc1)NC(=O)[C@@H](CS(=O)(=O)c1ccc2ccccc2c1)NS(C)(=O)=O [Example 44, [2R-(2R*,3R*,6R*,3'S*,4a'S*,8a'S*)]-N(t-Butyl)-2'-[2-hydroxy-3-phenylmethyl-4-aza-5-oxo-6-N(methylsulfonyl)amino-7-naphth-2-ylsulfonyl]heptyl decahydroisoquinoline-3'-carboxamide] | 0.202
6 | CC(C)(C)NC(=O)[C@@H]1C[C@@H]2CCCC[C@@H]2CN1C[C@@H](O)[C@H](CSc1ccccc1)NC(=O)[C@@H](CS(=O)(=O)c1ccc(F)cc1)NS(C)(=O)=O [Example 47] | 10.9

Second part, the compound after the results:

Row | IC50 [nM] | Compound
7 | 1.23 | CC(C)(C)NC(=O)[C@@H]1CN(Cc2cccnc2)CCN1C[C@@H](O)[C@H](Cc1ccccc1)NC(=O)[C@@H](CS(=O)(=O)c1ccc(F)cc1)NS(C)(=O)=O (relative stereo) [Example 46]
8 | 0.426 | CC(=O)N[C@H](CS(=O)(=O)c1ccc2ccccc2c1)C(=O)N[C@@H](Cc1ccccc1)[C@H](O)CN1C[C@H]2CCCC[C@H]2C[C@H]1C(=O)NC(C)(C)C [Example 36, [2R-(2R*,3R*,6R*,3'S*,4a'S*,8a'S*)]-N(t-Butyl)-2'-[2-hydroxy-3-phenylmethyl-4-aza-5-oxo-6-N(ethanoyl)amino-7-naphth-2ylsulfonyl]heptyl decahydroisoquinoline-3'-carboxamide]
9 | 0.635 | CC(C)(C)NC(=O)[C@@H]1C[C@@H]2CCCC[C@@H]2CN1C[C@@H](O)[C@H](Cc1ccccc1)NC(=O)[C@@H](CS(=O)(=O)c1ccc(F)cc1)NS(C)(=O)=O [Example 40, [2R-(2R*,3R*,6R*,3'S*,4a'S*,8a'S*)]-N(t-Butyl)-2'-[2-hydroxy-3-phenylmethyl-4-aza-5-oxo-6-N(methylsulfonyl)amino-7-p-fluoro-phenylsulfonyl]heptyl decahydroisoquinoline-3'-carboxamide]
10 | 7.76 | CC(C)(C)NC(=O)[C@@H]1C[C@@H]2CCCC[C@@H]2CN1C[C@@H](O)[C@H](Cc1ccccc1)NC(=O)[C@@H](CSc1ccc2ccccc2c1)NS(C)(=O)=O [Example 41, [2R-(2R*,3R*,6R*,3'S*,4a'S*,8a'S*)]-N(t-Butyl)-2'-[2-hydroxy-3-phenylmethyl-4-aza-5-oxo-6-N(methylsulfonyl)amino-7-naphth-2-ylthio]heptyl decahydroisoquinoline-3'-carboxamide]
11 | 1.1 | CC(=O)N[C@H](CSCc1ccccc1)C(=O)N[C@@H](Cc1ccccc1)[C@H](O)CN1C[C@H]2CCCC[C@H]2C[C@H]1C(=O)NC(C)(C)C [Example 49, [2R-(2R*,3R*,6R*,3'S*,4a'S*,8a'S*)]-N(t-Butyl)-2'-[2-hydroxy-3-phenylmethyl-4-aza-5-oxo-6-N(ethanoyl)amino-7-phenylmethylthio]heptyl decahydroisoquinoline-3'-carboxamide]

same assay, conditions: pH 5.5

Row | IC50 [nM] | Compound
12 | 1.1 | CC(=O)NC(CSCc1ccccc1)C(=O)NC(Cc1ccccc1)C(O)CN1CC2CCCCC2CC1C(=O)NC(C)(C)C (stereo not drawn) [Example 33, [2R-(2R*,3R*,6R*,3'S*,4a'S*,8a'S*)]-N(t-Butyl)-2'-[2-hydroxy-3-phenylmethyl-4-aza-5-oxo-6-N(ethanoyl)amino-7-phenylmethylthio]heptyl decahydroisoquinoline-3'-carboxamide]

same assay, conditions: read-out: Fluorescence Assay IC65 (65% inhibition at 0.16 ng/mL)

Row | IC65 [ng/mL] | Compound
13 | 0.16 (≈ 0.207 nM) | CC(C)(C)NC(=O)[C@@H]1C[C@@H]2CCCC[C@@H]2CN1C[C@@H](O)[C@H](CSc1ccccc1)NC(=O)[C@@H](CS(=O)(=O)c1ccc2ccccc2c1)NS(C)(=O)=O [Example 48]
